Laboratory results from patent publication US20190133124A1, “BACILLUS AND LIPOCHITOOLIGOSACCHARIDE FOR IMPROVING PLANT GROWTH” (NOVOZYMES BIOAG A/S, priority 2016, published 2019).

What was measured:
[1] = test system: corn seeds (Monsanto, DKC 63-33); experiment: Metro-Mix 830 system (growth chamber): corn seedling dry weight after seed treatment with Bacillus amyloliquefaciens and Myc factor; type: in vivo
Protocol: A study was performed to determine the effect of Bacillus amyloliquefaciens, LCOs, or combinations of Bacillus amyloliquefaciens and LCOs on corn growth. Corn seeds were treated with Bacillus amyloliquefaciens strain SB3281 bacteria alone, or in combination with an LCO IV (C16:0, S) Myc factor (FIG. 1B). In this study, corn seeds treated with Bacillus amyloliquefaciens alone or Myc factor alone were compared to non-treated control corn seeds. In addition, corn seeds treated with Bacillus amyloliquefaciens and Myc factor were included in the study. Seeds treated as above were tested in a system designed to test various parameters of early emergence of treated seeds. In this system, the treated seeds were planted in Metro-Mix® 830 (Sun Gro Horticulture; […], Mass., U.S.) and grown in a growth chamber (25° C., 60% relative humidity, 18/6 hour light/dark cycle). Germination trays (12 rows of 6 wells) were filled with moist Metro-Mix® 830. Treated seeds were sown into the wells (30 wells per seed treatment) and grown in the growth chamber for 8 days. The seedlings were harvested, and dry weights of roots/shoots from the seedlings were obtained. To measure the dry weight, the soil was removed from the roots, and dry weights of the roots/shoots and biomass per seedling were determined as described in Example 1. To obtain the Bacillus amyloliquefaciens bacterium for the study, strain SB3281 (ATCC PTA-7542) was grown as described in Example 1. Samples of the bacteria were taken from the culture at 24 hrs (T1). The number of bacteria in the cultures at the various time points was determined by plating serial dilutions from the cultures on SMA plates and the colonies that formed were counted and multiplied by the dilution factor. The number of spores in the cultures were determined by heating aliquots from the cultures at 80° C. in a water bath for 10 minutes to kill vegetative cells. Serial dilutions were plated as above and colony counts multiplied by the dilution factor. Corn seeds were treated by applying a total of 500 μl of treatment substances (e.g., bacteria, LCO, etc.) to 50 g of corn seeds (Monsanto, DKC 63-33). The seeds were allowed to dry at room temperature in bags for 3-4 hours before used in the Metro-Mix® experiments. Control seeds were treated with 500 μl of water. Another group of seeds was treated with 500 μl of a Bacillus amyloliquefaciens culture. A third group of seeds was treated with 500 μl of a 10^-9 M solution of Myc factor. A fourth group of seeds was treated with 250 μl of the Bacillus amyloliquefaciens culture and 250 μl of a 10^-9 M solution of Myc factor.

[2] = test system: corn seeds (Monsanto, DKC 63-33); experiment: Moist chamber system: corn seedling dry weight after seed treatment with Bacillus amyloliquefaciens and Nod factor; type: in vivo
Protocol: A study was performed to determine the effect of seed treatment of Bacillus amyloliquefaciens, a Nod factor, or a combination of Bacillus amyloliquefaciens and a Nod factor on corn growth. Corn seeds were treated with Bacillus amyloliquefaciens strain SB3281 bacteria alone, an LCO V (C18:1) Nod factor (FIG. 1A) alone, or a combination of the bacterial strain and Nod factor. Seeds treated as above were tested in a system designed to test various parameters of early seed germination. In this system, the seeds were placed on moist germination paper, in petri dishes, in a representative mock moist chamber experiment (for each seed treatment, 3 petri dishes, each with 5 seeds per dish, were used; 10 ml of deionized water was added to the germination paper per dish). The seeds were allowed to grow in the petri dishes at room temperature for approximately 2 weeks. After that time, various parameters of the seedlings were measured. The lengths of roots/shoots were measured in some experiments. In some experiments, the dry weights of the roots/shoots were determined after dissecting roots from shoots, drying the roots/shoots (placed in a coin envelope) in a 70° C. oven for 2 days, and weighing the roots/shoots. The individual biomass per seedling was determined from these measurements in order to find the average biomass per treatment. To obtain the Bacillus amyloliquefaciens bacterium for the study, strain SB3281 (ATCC PTA-7542) was maintained on Standard Methods Agar (“SMA”; Smith River Biologicals; Ferrum, Va., U.S.). Single colonies were selected from SMA and used to inoculate 5 ml of LB medium. Twenty-four hour old LB cultures were used to inoculate a 250 ml flask containing 100 ml of Si medium (per liter contained 9.4 g of yeast extract, 9.4 g of corn syrup solids, 0.5 g of magnesium chloride hexahydrate, 0.2 g of manganese (II) chloride tetrahydrate, 0.2 g of calcium chloride dehydrate, and 0.27 g of sodium hydroxide, pH 7.0). The flask was incubated at 30° C. on a shaker at 165 rpm. Samples of the bacteria were taken from the culture at 7 days (T7). The number of bacteria in the cultures at the various time points was determined by plating serial dilutions from the cultures on SMA plates and the colonies that formed were counted and multiplied by the dilution factor. The number of spores in the cultures were determined by heating aliquots from the cultures at 80° C. in a water bath for 10 minutes to kill vegetative cells. Serial dilutions were plated as above and colony counts multiplied by the dilution factor. Generally, the cultures contained 10^9 bacteria or spores per ml. Corn seeds were treated by applying a total of 500 μl of treatment substances (e.g., bacteria, LCO, etc.) to 50 g of corn seeds (Monsanto, DKC 63-33). The seeds were allowed to dry at room temperature in bags for 3-4 hours before used in the moist chamber experiments. For treatment of seeds with a single substance (e.g., bacteria alone, LCO alone), 500 μl of the bacterial culture was used, or 500 μl of a LCO solution that contained 6 μl of a 10^−8 M LCO stock solution in 100 ml of buffer was used. For treatment of seeds with two substances (e.g., bacteria and an LCO), 250 μl of the bacterial culture and 250 μl of the 6×10^−13 M LCO stock solution was used. Negative control corn seeds were treated with 500 μl of water. […]

| Compound | Average individual seedling dry weight ([1]; Metro-Mix 830, growth chamber 25° C., 8 days, culture grown 1 day (T1), single: 500 μl culture or 500 μl 10^−9 M Myc factor, combination: 250 μl + 250 μl, per 50 g seeds) | Decrease in seedling dry weight versus control ([1]; difference to control 0.1985 g, Metro-Mix 830) | Change in seedling dry weight over control (about %) ([1]; rounded, Metro-Mix 830) | Effect on corn plant growth (in words) ([1]; seedling dry weight, Metro-Mix 830) | Percent increase seedling dry weight over control ([1]; vs water-treated control, Metro-Mix 830, 8 days) | Average individual seedling dry weight ([2]; approximately 2 weeks, T7 culture, single: 500 μl culture or 500 μl 6×10^−13 M LCO, combination: 250 μl + 250 μl, per 50 g seeds) | Increase in seedling dry weight over control ([2]; difference to control 0.2190 g) | Increase in seedling dry weight over control (about %) ([2]; rounded) | Effect on corn plant growth (in words) ([2]; seedling dry weight) | Percent increase seedling dry weight over control ([2]; vs water-treated control) |
| --- | --- | --- | --- | --- | --- | --- | --- | --- | --- | --- |
| CCCCCCCCCCCCCCCC(=O)N[C@H]1[C@H](O[C@H]2[C@H](O)[C@@H](NC(C)=O)[C@H](O[C@H]3[C@H](O)[C@@H](NC(C)=O)[C@H](O[C@H]4[C@H](O)[C@@H](NC(C)=O)C(O)O[C@@H]4COS(=O)(=O)O)O[C@@H]3CO)O[C@@H]2CO)O[C@H](CO)[C@@H](O)[C@@H]1O (stereo partly shown) [Myc factor, LCO IV (C16:0, S)] | 0.1921 g | 0.0064 g | about −3.2% | appeared to have a negative effect on corn plant growth | −3.22% | – | – | – | – | – |
| LCO V (C18:1) [Nod factor] | – | – | – | – | – | 0.2244 g | 0.0054 g | about 2.5% | increased corn plant growth | 2.47% |
